Data as given in the NIST ThermoML archive (doi:10.1021/je0301040).

Assay: xn = mol fraction of the nth substance listed

FC(Cl)(Cl)Cl [trichlorofluoromethane] + FC(F)Cl
Details | mass density [kg/m3]
374.97 K, 3116.9 kPa, Liquid, Pycnometric method, x1 = 0.8336 | 1216.83
374.97 K, 14051 kPa, Liquid, Pycnometric method, x1 = 0.8336 | 1279.66
374.97 K, 21566 kPa, Liquid, Pycnometric method, x1 = 0.8336 | 1310.86
374.97 K, 27844 kPa, Liquid, Pycnometric method, x1 = 0.8336 | 1332.88
374.97 K, 35188 kPa, Liquid, Pycnometric method, x1 = 0.8336 | 1355.43
374.97 K, 42212 kPa, Liquid, Pycnometric method, x1 = 0.8336 | 1374.59
374.97 K, 48936 kPa, Liquid, Pycnometric method, x1 = 0.8336 | 1391.15
374.97 K, 56118 kPa, Liquid, Pycnometric method, x1 = 0.8336 | 1407.35
374.97 K, 63201 kPa, Liquid, Pycnometric method, x1 = 0.8336 | 1422.2
374.97 K, 67438 kPa, Liquid, Pycnometric method, x1 = 0.8336 | 1430.6
374.98 K, 99.9 kPa, Fluid (supercritical or subcritical phases), Burnett expansion method, x1 = 0.832 | 4.192
374.98 K, 100.73 kPa, Fluid (supercritical or subcritical phases), Burnett expansion method, x1 = 0.832 | 4.2353
374.98 K, 141.34 kPa, Fluid (supercritical or subcritical phases), Burnett expansion method, x1 = 0.832 | 5.9685
374.98 K, 195.81 kPa, Fluid (supercritical or subcritical phases), Burnett expansion method, x1 = 0.832 | 8.3248
374.98 K, 197.47 kPa, Fluid (supercritical or subcritical phases), Burnett expansion method, x1 = 0.832 | 8.4097
374.98 K, 216.98 kPa, Fluid (supercritical or subcritical phases), Burnett expansion method, x1 = 0.832 | 9.2699
374.98 K, 272.55 kPa, Fluid (supercritical or subcritical phases), Burnett expansion method, x1 = 0.832 | 11.7304
374.98 K, 275.03 kPa, Fluid (supercritical or subcritical phases), Burnett expansion method, x1 = 0.832 | 11.8505
374.98 K, 301.92 kPa, Fluid (supercritical or subcritical phases), Burnett expansion method, x1 = 0.832 | 13.0615
374.98 K, 377.56 kPa, Fluid (supercritical or subcritical phases), Burnett expansion method, x1 = 0.832 | 16.5279
374.98 K, 381 kPa, Fluid (supercritical or subcritical phases), Burnett expansion method, x1 = 0.832 | 16.6977
374.98 K, 417.41 kPa, Fluid (supercritical or subcritical phases), Burnett expansion method, x1 = 0.832 | 18.4053
374.98 K, 518.62 kPa, Fluid (supercritical or subcritical phases), Burnett expansion method, x1 = 0.832 | 23.2877
374.98 K, 523.72 kPa, Fluid (supercritical or subcritical phases), Burnett expansion method, x1 = 0.832 | 23.528
374.98 K, 569 kPa, Gas, isochoric method, x1 = 0.832 | 201.277
374.98 K, 1592.7 kPa, Liquid, Pycnometric method, x1 = 0.8336 | 1204.96
374.98 K, 1802 kPa, Liquid, Pycnometric method, x1 = 0.8336 | 1206.68
374.98 K, 3500.8 kPa, Liquid, Pycnometric method, x1 = 0.8336 | 1219.67
374.98 K, 7519.3 kPa, Liquid, Pycnometric method, x1 = 0.8336 | 1245.72
375.98 K, 3481.1 kPa, Liquid, isochoric method, x1 = 0.832 | 1216.37
375.98 K, 3481.3 kPa, Liquid, isochoric method, x1 = 0.832 | 1216.37
380.97 K, 5662.2 kPa, Liquid, isochoric method, x1 = 0.832 | 1216.02
385.97 K, 7843.6 kPa, Liquid, isochoric method, x1 = 0.832 | 1215.66
385.97 K, 7845.9 kPa, Liquid, isochoric method, x1 = 0.832 | 1215.66
389.97 K, 399.7 kPa, Gas, isochoric method, x1 = 0.832 | 131.569
389.97 K, 864.3 kPa, Gas, isochoric method, x1 = 0.832 | 304.496
399.96 K, 7536.5 kPa, Liquid, Pycnometric method, x1 = 0.8336 | 1168.49
399.96 K, 49152 kPa, Liquid, Pycnometric method, x1 = 0.8336 | 1348.85
399.97 K, 617 kPa, Gas, isochoric method, x1 = 0.832 | 201.042
399.97 K, 3101 kPa, Liquid, Pycnometric method, x1 = 0.8336 | 1123.2
399.97 K, 3459.9 kPa, Liquid, Pycnometric method, x1 = 0.8336 | 1127.62
399.97 K, 3838.5 kPa, Liquid, Pycnometric method, x1 = 0.8336 | 1132.14
399.97 K, 5333.9 kPa, Liquid, Pycnometric method, x1 = 0.8336 | 1148.2
399.97 K, 14526 kPa, Liquid, Pycnometric method, x1 = 0.8336 | 1217.33
399.97 K, 21523 kPa, Liquid, Pycnometric method, x1 = 0.8336 | 1253.75
399.97 K, 28491 kPa, Liquid, Pycnometric method, x1 = 0.8336 | 1283.14
399.97 K, 35354 kPa, Liquid, Pycnometric method, x1 = 0.8336 | 1307.71
399.97 K, 56281 kPa, Liquid, Pycnometric method, x1 = 0.8336 | 1366.92
399.97 K, 63214 kPa, Liquid, Pycnometric method, x1 = 0.8336 | 1383.07
399.98 K, 2379 kPa, Liquid, Pycnometric method, x1 = 0.8336 | 1111.44
399.98 K, 2438.9 kPa, Liquid, Pycnometric method, x1 = 0.8336 | 1114.58
399.98 K, 2791.2 kPa, Liquid, Pycnometric method, x1 = 0.8336 | 1119.29
399.98 K, 41888 kPa, Liquid, Pycnometric method, x1 = 0.8336 | 1328.37
404.97 K, 909.7 kPa, Gas, isochoric method, x1 = 0.832 | 304.283
404.97 K, 1209.7 kPa, Gas, isochoric method, x1 = 0.832 | 426.452
409.97 K, 5121.7 kPa, Liquid, isochoric method, x1 = 0.832 | 1111.12
414.97 K, 1254.6 kPa, Gas, isochoric method, x1 = 0.832 | 426.252
414.97 K, 1558.2 kPa, Gas, isochoric method, x1 = 0.832 | 556.482
415.97 K, 7015.9 kPa, Liquid, isochoric method, x1 = 0.832 | 1110.75
419.96 K, 1587.9 kPa, Gas, isochoric method, x1 = 0.832 | 556.352
421.97 K, 8915.8 kPa, Liquid, isochoric method, x1 = 0.832 | 1110.38
424.96 K, 76.05 kPa, Fluid (supercritical or subcritical phases), Burnett expansion method, x1 = 0.832 | 2.7936
424.96 K, 106.8 kPa, Fluid (supercritical or subcritical phases), Burnett expansion method, x1 = 0.832 | 3.939
424.96 K, 136.17 kPa, Fluid (supercritical or subcritical phases), Burnett expansion method, x1 = 0.832 | 5.049
424.96 K, 191.33 kPa, Fluid (supercritical or subcritical phases), Burnett expansion method, x1 = 0.832 | 7.117
424.96 K, 210.5 kPa, Fluid (supercritical or subcritical phases), Burnett expansion method, x1 = 0.832 | 7.8282
424.96 K, 268.07 kPa, Fluid (supercritical or subcritical phases), Burnett expansion method, x1 = 0.832 | 10.034
